Here are results for six compounds from paper PMC8574161 (Journal of chemical information and modeling, 2021).

In general, IC50 refers to the point on the concentration scale where inhibition reaches its midpoint. What is called EC90 is the point of the concentration-response curve where the effect stands at 90%. Read a low EC90 as an effect from little substance. As a reminder, the EC50 is the concentration giving half of the maximal effect. In general, Kd refers to the free concentration of one partner at which half of the binding sites on the other are occupied at equilibrium, for simple one-to-one binding.

Each structure is given as a SMILES string. Values joined by “and” are separate entries in the source; they are usually repeats but may differ in a detail not shown here. Equal entries are not always repeated. Structures can show the parent of a compound that is named as a salt. Where two headings read alike, the source gives them in different places.

In data set [1] the test system is SARS-CoV-2. The note with it: Calu-3 cells; cited from earlier work.
Data set [2] relates to SARS-CoV-2. Conditions: compared with CC50.
The test system of data set [3] is SARS-CoV-2. The data set is described as follows: microbe, parasite or virus in culture.
Data set [4] can be described thus: in vitro. Conditions: human.
Data set [5] concerns SARS-CoV-2. The experiment in a line: Vero 76 reduction of virus-induced cytopathic effect. The data set is classed as cell-based. Conditions: Severe acute respiratory syndrome coronavirus 2, Vero 76, Vero 76. On the technique in general: Protection from cytopathic effect is a common read-out in antiviral testing.
Data set [6] deals with SARS-CoV-2 Spike RBD protein (Severe acute respiratory syndrome coronavirus 2, UniProt P0DTC2). The experiment in a line: Microscale thermophoresis binding to Spike RBD. The note with it: MST, 5 nM labeled Spike RBD, 23°C, quadruplicate. In general terms: MST reads how a fluorescent partner responds to local heating, with and without ligand.
Data set [7] in a line: Vero 76 cytotoxicity in uninfected toxicity cultures. The note with it: African green monkey, CC50, Vero 76.
A short description of data set [8]: Calu3 toxicity. The data set is classed as cell-based. The note with it: human, Calu3 cells infected with SARS-CoV-2.
Data set [9] concerns SARS-CoV-2 (isolate USA WA1/2020). The experiment in a line: microbe, parasite or virus in culture. The data set is classed as cell-based. The note with it: Severe acute respiratory syndrome coronavirus 2, Calu-3, 48 h.
Data set [10] relates to SARS-CoV-2. The note with it: Vero E6 cells; cited from earlier work.
Data set [11] has as its system SARS-CoV-2. Conditions: Vero cells; cited from earlier work.
The mark [12] stands for this setting: Severe acute respiratory syndrome coronavirus 2, Caco-2, 72 h.
Where [13] appears, read: Neutral Red (Cytopathic effect/Toxicity).
Where [14] appears, read: Visual (Cytopathic effect/Toxicity).

Consider `C[C@H]1[C@H](OC(=O)CCC(=O)O)O[C@@H]2O[C@@]3(C)CC[C@H]4[C@H](C)CC[C@@H]1[C@@]24OO3` [Artesunate], for which, in data set [1], the IC50 was 1.76 µM.

As to `CCCC1O[C@@H]2C[C@H]3[C@@H]4CCC5=CC(=O)C=C[C@]5(C)[C@H]4[C@@H](O)C[C@]3(C)[C@]2(C(=O)CO)O1` (some centres unmarked) [Budesonide], the “activity against SARS-CoV-2 in Caco-2 cells (in words)” value in data set [2] is on record as “no activity”. This compound also had an EC90 in data set [3] (setting [12]) above 10 µM. This compound also showed a CC50 at 3 days in data set [4] of 10 µM.

`CCCCN(CCCC)CC(O)c1cc(Cl)cc2c1-c1ccc(Cl)cc1/C2=C/c1ccc(Cl)cc1` (centres unmarked) [Lumefantrine]: the EC50 in data set [5] (setting [13]) is 54 µM; in data set [5] (setting [14]), above 60 µM; in data set [10] it was 23.2 µM. Moreover, in data set [6], the Kd is 0.259 µM and ~0.25 µM. For the same compound, the CC50 in data set [7] (setting [13]) was 177 µM; in data set [7] (setting [14]), above 60 µM. In addition, in data set [8], the CC50 at 48 h was above 20 µM. The compound also displayed an IC50 in data set [9] above 20 µM. In data set [3] (setting [12]), this compound returned an EC90 of 10 µM. Besides, the CC50 at 3 days in data set [4] came to 10 µM.

`Cc1cn(-c2cc(NC(=O)c3ccc(C)c(Nc4nccc(-c5cccnc5)n4)c3)cc(C(F)(F)F)c2)cn1` [Nilotinib]: the potency entry in data set [11] is given as “sub-micromolar”.

`COc1cc2c(cc1OC)C1CC(=O)C(CC(C)C)CN1CC2` (centres unmarked) [Tetrabenazine]: the “activity against SARS-CoV-2 in Caco-2 cells (in words)” value in data set [2] was “inactive”. Also, the EC90 in data set [3] (Severe acute respiratory syndrome coronavirus 2, Caco-2) was above 100 µM. This compound had a CC50 at 3 days in data set [4] above 100 µM.

Regarding `C=C[C@]1(C)C[C@@H](OC(=O)CSCCN(CC)CC)[C@]2(C)[C@H](C)CC[C@]3(CCC(=O)[C@H]32)[C@@H](C)[C@@H]1O` [Tiamulin fumarate], the EC90 in [3] (setting [12]) was 65 µM. Further, the CC50 at 3 days in data set [4] was above 100 µM.
